Results: US5232917A, “Methods, compositions, and compounds for allosteric modulation of the GABA receptor by members of the androstane and pregnane series” (priority 1991, dated 1993)
pIC50: −log10 of the molar value. Like-named read-outs stand apart in the source and are kept apart here.

What was measured:
[1] = tested on: PMS, PND and catamenial epilepsy; conditions: cited from earlier work; for clinical effectiveness: PMS, PND, catamenial epilepsy (progesterone), menstrual-cycle correlated epileptic spells (desoxycorticosterone)
[2] = tested on: GABA receptor complex (36Cl uptake, cerebral cortical synaptoneurosomes); experiment: GABA-stimulated 36Cl uptake in rat cerebral cortical synaptoneurosomes; type: biochemical, rat (male Sprague-Dawley)
Method: In addition, the ability of the BZ clonazepam to modulate ^36 Cl uptake in the presence or absence of 5α-pregnandiol was evaluated.
The homogenate was diluted to a final volume of 40 mL with buffer and filtered through three layers of Nylon mesh (160 μm).
Aliquots of membrane preparation (200 μL) were preincubated at 30° C. for 10 min. The interaction was initiated by the simultaneous addition of drugs/steroids and 0.2 mL ^36 Cl (New England Nuclear Boston, Mass., 0.55 mCi/mmol, 0.8 μCi/ml) resulting in a total incubation volume of 0.4 mL. Steroids and test drugs were solubilized in dimethylsufoxide (DMSO) and added to the reaction mixture in 2 μL aliquots. An equal volume of vehicle was always included in the control reaction mixture. The mixture was gently mixed and ^36 Cl uptake terminated after 5 sec by the of 5 mL of ice cold buffer containing 100 μM picrotoxin (Sigma Chem Co.) followed immediately by rapid filtration through glass fiber filters (Whatman GF/C) under vacuum. The filters were washed twice with 5 mL of ice-cold buffer and the filter-bound radioactivity quantitated by liquid scintillation spectrophotometry. Specific uptake was calculated by subtracting the amount of ^36 Cl bound to the filters in the absence of synaptoneurosomes from that observed in their presence. Percent enhancement represents percent increase in uptake over that of basal ^36 Cl uptake. Statistical comparisons utilized the analysis of variance (ANOVA).

[3] = tested on: maximal electroshock seizure; conditions: Swinyard & Woodhead, 1982; cited from earlier work
[4] = tested on: metrazol-induced convulsions; conditions: Swinyard & Woodhead, 1982; cited from earlier work
[5] = tested on: (+)bicuculline-induced seizures; conditions: Swinyard & Woodhead, 1982; cited from earlier work
[6] = tested on: picrotoxin-induced convulsions; conditions: Swinyard & Woodhead, 1982; cited from earlier work
[7] = tested on: strychnine-induced convulsions; design: key to ED50 STR (strychnine): NP: no protection; conditions: Swinyard & Woodhead, 1982; cited from earlier work
[8] = tested on: number of light/dark transitions (anxiety); conditions: Crawley et al., cited from earlier work; for effect on number of light/dark transitions (literature): Blumstein and Crawley, 1983
[9] = tested on: sedative potential (rotorod); conditions: Swinyard & Woodhead, 1982; cited from earlier work
[10] = Swinyard & Woodhead, 1982; cited from earlier work
[11] = tested on: number of light/dark transitions (anxiety); experiment: Light/dark transition test; type: in vivo, mice (male N.I.H. Swiss-Webster)
Excerpt: (§1) The light/dark transition test (Crawley and Goodwin, 1980) is based on the observation that rodents naturally tend to explore novel environments, but open, brightly lit arenas are aversive to the rodents and inhibit exploratory behavior (Christmas and Maxwell, 1970; File, 1980). […] Similar to the light/dark transition test, the open-field test measures the antagonism between the tendency to explore a novel environment and the tendency to remain still in an aversive environment (brightly lit arena). […] The open-field test provides a simple, non-punished assessment of the potential anxiolytic properties of novel compounds. Finally, 3α-OH-DHP was tested for anxiolytic properties in a Vogel conflict paradigm. The ability of BZs to attenuate the suppression of behavior by punishment in conflict paradigms is well established (Gellar et al., 1962; Vogel et al., 1971).
(§2) Male N.I.H. Swiss-Webster mice (Harlan) weighing 15-20 g were used in all experiments. The mice were housed 4/cage in polyethylene cages with sawdust bedding. The colony room was environmentally controlled (22° C.) with a 12 hr. light/dark cycle (0600-1800 hrs.). The mice had free access to food and water. The experiments were run from 0700-1500 hrs. and groups were counterbalanced for time of day effects.
The method used was previously described by Crawley and Goodwin (1980). The apparatus included a large box (26×33×24 cm) connected to a small box (15×22×14 cm) through an opening (5×6 cm). The large box was brightly lit with a standard 100W light bulb, while the small box was kept dark. Following pretreatment with a test drug, mice were placed in the center of the large box and the number of transitions between the large and small boxes was counted for 10 min. […] During the antagonist studies, CGS-8216 was administered 30 min. prior to the test drug.
(§3) 2-Hydroxypropyl β-cyclodextrin Diazepam and chlordiazepoxide are available from Sigma, Co. (St. Louis, Mo.). CGS-8216 was obtained from Ciba-Geigy (Summit, N.J.). All drugs were dissolved in 20% β-cyclodextrin in water and sonicated overnight. All drugs were administered intraperitoneally in a volume of 100 μL/20 g. CGS-8216 was administered subcutaneously in a volume of 100 μL/20 g.
(§4) The vehicle control data were analyzed across test days using an 1-way analysis of variance (ANOVA). […] The dose-response curves were then analyzed using an 1-way ANOVA, followed by Dunnett's t-test for individual comparisons between doses and control. The open-field and habituated locomotor data were analyzed using ANOVA followed by Dunnett's t-test. […] All data is expressed as the mean±S.E.M.

open-field activity = experiment: Open-field activity test; type: in vivo, mice (male N.I.H. Swiss-Webster); conditions: diazepam 10 mg/kg
Excerpt: as §1, §2
As a secondary measure of anxiolytic effects, naive mice were placed in the center of a large, brightly lit plexiglass box (42×42×30.5 cm) and the total distance traveled was measured during a 10 min. test period. […] The Digiscan Activity Monitor (Omnitech Electronics, Columbus, Ohio) includes 16 photobeams that surround the box. The activity monitor is linked to a computer through a Digiscan Analyzer (Omnitech Electronics) and the data is analyzed using the Integrated Lab Animal Monitoring System (Omnitech Electronics). The mice were administered drugs as described for light/dark transitions.
as §3, §4

locomotor activity = experiment: Locomotor activity in habituated mice; type: in vivo, mice (male N.I.H. Swiss-Webster)
Method: For evaluation of a drug's effects on general activity, mice were first habituated to the open-field apparatus for 15 min. The following day, mice were pretreated with a test drug and placed in the center of the activity chambers. The total distance traveled was measured for 10 min.
as §4

[12] = tested on: GABA receptor-chloride ionophore complex (GR complex); experiment: [35S]TBPS binding modulation assay
punished responding = experiment: Vogel conflict paradigm (lick suppression); type: in vivo, mice (male N.I.H. Swiss-Webster); conditions: CDP 10 mg/kg
Excerpt: An Anxio-Monitor (Omnitech Electronics, Columbus, Ohio) was used for measuring lick suppression. The testing chamber consisted of a clear plexiglass box (29 cm×29 cm×23 cm) with a metal drinking tube located 2.5 cm from the floor and extending 2 cm into the box. The shock was applied through the drinking spout and was controlled by the Anxio-Monitor. […] The reinforcer was 0.1M sucrose.
The conflict test procedure described by Vogel et al. (1980) was employed. This procedure is a modification of the original lick suppression test first described by Vogel et al. (1971). After 24 hr. of water deprivation,mice were allowed to explore the test apparatus and drink without punishment for 10 min. or 100 licks. […] Mice were allowed unpunished access to the drinking tube for 20 licks, thereafter, every 10th lick was punished with 0.1 mA shock. The test duration was 5 min.
as §4

SMILES: C[C@]12CC[C@H]3[C@@H](CCC4=CC(=O)CC[C@@]43C)[C@@H]1CC[C@@H]2C(=O)CO [desoxycorticosterone]
- clinical effectiveness [1]: effective

SMILES: O=C1CN=C(c2ccccc2Cl)c2cc([N+](=O)[O-])ccc2N1 [Clonazepam]
- % enhancement of basal 36Cl uptake ([2]; GABA (25 μM) + clonazepam (1 μM)): 164±2%
- % enhancement of basal 36Cl uptake ([2]; clonazepam (1 μM), no GABA): 1 ± 0.5%
- ED50 MES (maximal electroshock) [3]: 93 mg/kg
- ED50 MTZ (metrazol) [4]: 0.009 mg/kg
- ED50 BIC (bicuculline) [5]: 0.0086 mg/kg
- ED50 PICRO (picrotoxin) [6]: 0.043 mg/kg
- ED50 STR (strychnine) [7]: NP
- effect on number of light/dark transitions (literature) [8]: increase the number of transitions
- ED50 RR (Rotorod) [9]: 0.184 mg/kg
- LD50 [10]: > 6000 mg/kg

SMILES: CN1C(=O)CN=C(c2ccccc2)c2cc(Cl)ccc21 [Diazepam, reference compound]
- effect on number of light/dark transitions (words) ([11]; 3α-OH-DHP 10, 20, 40 mg/kg, 5α-THDOC 20 mg/kg, diazepam 1.0, 5.0, 10, 20 mg/kg, 20 mg/kg): significantly (p<0.01) different from controls
- number of transitions in 10 min (maximal response) ([11]; diazepam 10 mg/kg i.p., FIG. 11): 86.4±5.4 transitions
- total distance, open-field (open-field activity; 10 min, vehicle 2004.6 ± 134.6): 4817.7 ± 528.4 cm
- effect on open-field activity (open-field activity; steroids 20 mg/kg): significant (p<0.01) increase in activity
- effect on locomotor activity (locomotor activity; acclimated mice): no effect
- total distance traveled, acclimated mice (locomotor activity; diazepam 10 mg/kg, controls 2061.2±157.7 cm): 2258.0±897.7 cm
- effect on number of light/dark transitions (literature) [8]: increase the number of transitions

SMILES: CC(=O)[C@H]1CC[C@H]2[C@@H]3CCC4=CC(=O)CC[C@]4(C)[C@H]3CC[C@]12C [PROGESTERONE, reference compound]
- dose-response relationship in the treatment of PMS ([1]; Maddocks et al., Dennerstein et al.): no dose-response relationship exists
- clinical effectiveness [1]: not consistently effective
- potency/activity at the GR complex ([12]; modulation of [35S]TBPS binding): very low potency
- pIC50 ([12]; read-out: IC50, inhibition of [35S]-TBPS binding, +5 μM GABA, in the presence of 5 μM GABA): 5.28
- pIC50 ([12]; read-out: IC50, inhibition of [35S]-TBPS binding, No GABA, washed synaptoneurosomes, no GABA added): < 4.00
- Max. Inhib., maximal % of specifically bound [35S]-TBPS displaced ([12]; saturating concentrations of test compound): 100%

SMILES: O=C1C2C=Nc3ccccc3C2=NN1c1ccccc1 (stereo not drawn) [CGS-8216, reference compound]
- block of anxiolytic effect of 3α-OH-DHP by CGS-8216 ([11]; CGS-8216 10 mg/kg, 3α-OH-DHP 10 mg/kg, FIG. 13A): unable to block
- block of anxiolytic effect of diazepam by CGS-8216 ([11]; diazepam 1.0 mg/kg, FIG. 13B): able to block the anxiolytic effect of diazepam
- intrinsic activity in light/dark transition test ([11]; p>0.4 vs vehicle): did not demonstrate any intrinsic activity
- block of diazepam's anxiolytic effects (literature) [8]; 1984: block diazepam's anxiolytic effects

SMILES: CNC1=Nc2ccc(Cl)cc2C(c2ccccc2)=[N+]([O-])C1 [CDP, reference compound]
- increase in punished responding vs controls (punished responding; 5 min session, p=0.03, FIG. 14): 197.4%
- punished responding (punished responding; controls 3.11±0.68): 6.14±1.14
